For two compounds, inhibition results are on record in ChEMBL document CHEMBL4387741, “Optimization of novel reversible Bruton's tyrosine kinase inhibitors identified using Tethering-fragment-based screens” (Bioorg Med Chem, 2019).

The term inhibition denotes the drop in the measured response relative to a control, in per cent.

Test [1] has as its target Mitogen-activated protein kinase kinase kinase kinase 3 (Homo sapiens) (UniProt Q8IVH8). Kind of test: Inhibition of wild-type human partial length MAP4K3 (M1 to D301 residues) expressed in bacterial expression system at 10 uM by Kinomescan method relative to control.
Test [2] deals with Dual specificity protein kinase CLK1 (Homo sapiens) (UniProt P49759). Nature of the test: Inhibition of wild-type human full length CLK1 (M1 to I484 residues) expressed in bacterial expression system at 10 uM by Kinomescan method relative to control.
Test [3] concerns the target Serine/threonine-protein kinase RIO1 (Homo sapiens) (UniProt Q9BRS2). Kind of test: Inhibition of wild-type human full length RIOK1 (M1 to K568 residues) expressed in bacterial expression system at 10 uM by Kinomescan method relative to control.
For test [4], the system named is Phosphatidylinositol 4,5-bisphosphate 3-kinase catalytic subunit alpha isoform (Homo sapiens), P42336 [I800L]. Kind of test: Inhibition of human partial length PIK3CA I800L mutant (R108 to N1068 residues) expressed in mammalian expression system at 10 uM by Kinomescan method relative to control.
Test [5] deals with Tyrosine-protein kinase TXK (Homo sapiens) (UniProt P42681). Kind of test: Inhibition of wild-type human partial length TXK (L238 to W527 residues) expressed in bacterial expression system at 10 uM by Kinomescan method relative to control.
The target in test [6] is SRSF protein kinase 3 (Homo sapiens) (UniProt Q9UPE1). Nature of the test: Inhibition of wild-type human partial length SRPK3 (P41 to P567 residues) expressed in bacterial expression system at 10 uM by Kinomescan method relative to control.
Test [7] addresses Calcium/calmodulin-dependent protein kinase type II subunit alpha (Homo sapiens) (UniProt Q9UQM7). Nature of the test: Inhibition of wild-type human partial length CAMK2A (M1 to K328 residues) expressed in bacterial expression system at 10 uM by Kinomescan method relative to control.
Test [8] deals with Maternal embryonic leucine zipper kinase (Homo sapiens) (UniProt Q14680). Nature of the test: Inhibition of wild-type human full length MELK (M1 to V651 residues) expressed in bacterial expression system at 10 uM by Kinomescan method relative to control.
Test [9] concerns the target Insulin receptor-related protein (Homo sapiens) (UniProt P14616). Kind of test: Inhibition of wild-type human partial length INSRR (R950 to E1278 residues) expressed in bacterial expression system at 10 uM by Kinomescan method relative to control.
The target of test [10] is Serine/threonine-protein kinase 3 (Homo sapiens) (UniProt Q13188). Nature of the test: Inhibition of wild-type human partial length MST2 (D17 to E318 residues) expressed in bacterial expression system at 10 uM by Kinomescan method relative to control.
Test [11] addresses Phosphatidylinositol 4-phosphate 3-kinase C2 domain-containing subunit beta (Homo sapiens) (UniProt O00750). Nature of the test: Inhibition of wild-type human partial length PIK3C2B (M1 to L1634 residues) expressed in mammalian expression system at 10 uM by Kinomescan method relative to control.
For test [12], the system named is Epidermal growth factor receptor (Homo sapiens), P00533 [T790M]. Kind of test: Inhibition of human partial length EGFR T790M mutant (R669 to G1022 residues) expressed in mammalian expression system at 10 uM by Kinomescan method relative to control.
Test [13] deals with Casein kinase II subunit alpha (Homo sapiens) (UniProt P68400). Kind of test: Inhibition of wild-type human full length CSNK2A1 (M1 to Q391 residues) expressed in mammalian expression system at 10 uM by Kinomescan method relative to control.
Test [14] has as its system Tyrosine-protein kinase ABL1 (Homo sapiens), P00519 [Y253F]. Nature of the test: Inhibition of human phosphorylated ABL1 Y253F mutant (S229 to K512 residues) expressed in mammalian expression system at 10 uM by Kinomescan method relative to control.
The subject of test [15] is Epidermal growth factor receptor (Homo sapiens), P00533 [L858R]. Kind of test: Inhibition of human partial length EGFR L858R mutant (R669 to V1011 residues) expressed in bacterial expression system at 10 uM by Kinomescan method relative to control.
The target of test [16] is Mitogen-activated protein kinase kinase kinase 11 (Homo sapiens) (UniProt Q16584). Nature of the test: Inhibition of wild-type human partial length MLK3 (I77 to W399 residues) expressed in bacterial expression system at 1 uM by Kinomescan method relative to control.
Test [17] has as its target Mitogen-activated protein kinase 15 (Homo sapiens) (UniProt Q8TD08). Kind of test: Inhibition of wild-type human partial length ERK8 (M1 to P437 residues) expressed in bacterial expression system at 1 uM by Kinomescan method relative to control.
The target in test [18] is Ribosomal protein S6 kinase alpha-4 (Homo sapiens) (UniProt O75676). Nature of the test: Inhibition of wild-type human partial length C-terminal RPS6KA4 kinase domain 2 (M375 to T705 residues) expressed in mammalian expression system at 1 uM by Kinomescan method relative to control.
Test [19] has as its target Eukaryotic translation initiation factor 2-alpha kinase 1 (Homo sapiens) (UniProt Q9BQI3). Nature of the test: Inhibition of wild-type human partial length EIF2AK1 (Q147 to E603 residues) expressed in mammalian expression system at 1 uM by Kinomescan method relative to control.
The target in test [20] is Citron Rho-interacting kinase (Homo sapiens) (UniProt O14578). Kind of test: Inhibition of wild-type human partial length CIT (M68 to E432 residues) expressed in bacterial expression system at 1 uM by Kinomescan method relative to control.
Test [21] deals with Mitogen-activated protein kinase kinase kinase 4 (Homo sapiens) (UniProt Q9Y6R4). Kind of test: Inhibition of wild-type human partial length MAP3K4 (G1319 to E1608 residues) expressed in bacterial expression system at 1 uM by Kinomescan method relative to control.
The target of test [22] is Ephrin type-A receptor 5 (Homo sapiens) (UniProt P54756). Kind of test: Inhibition of wild-type human partial length EPHA5 (T627 to V930 residues) expressed in bacterial expression system at 1 uM by Kinomescan method relative to control.
Test [23] addresses Tyrosine-protein kinase receptor Tie-1 (Homo sapiens) (UniProt P35590). Kind of test: Inhibition of wild-type human partial length TIE1 (T819 to A1138 residues) expressed in bacterial expression system at 1 uM by Kinomescan method relative to control.
Test [24] deals with LIM domain kinase 2 (Homo sapiens) (UniProt P53671). Kind of test: Inhibition of wild-type human full length LIMK2 (M1 to P638 residues) expressed in bacterial expression system at 1 uM by Kinomescan method relative to control.
Test [25] deals with Tyrosine-protein kinase ABL1 (Homo sapiens) (UniProt P00519). Kind of test: Inhibition of wild-type human phosphorylated ABL1 (S229 to K512 residues) expressed in mammalian expression system at 1 uM by Kinomescan method relative to control.
Test [26] addresses Serine/threonine-protein kinase PAK 5 (Homo sapiens) (UniProt Q9P286). Nature of the test: Inhibition of wild-type human partial length PAK7 (Y400 to H719 residues) expressed in bacterial expression system at 1 uM by Kinomescan method relative to control.

Chain of Ephrin type-A receptor 5 (Homo sapiens) (P54756 whole entry, the tested form may be a part): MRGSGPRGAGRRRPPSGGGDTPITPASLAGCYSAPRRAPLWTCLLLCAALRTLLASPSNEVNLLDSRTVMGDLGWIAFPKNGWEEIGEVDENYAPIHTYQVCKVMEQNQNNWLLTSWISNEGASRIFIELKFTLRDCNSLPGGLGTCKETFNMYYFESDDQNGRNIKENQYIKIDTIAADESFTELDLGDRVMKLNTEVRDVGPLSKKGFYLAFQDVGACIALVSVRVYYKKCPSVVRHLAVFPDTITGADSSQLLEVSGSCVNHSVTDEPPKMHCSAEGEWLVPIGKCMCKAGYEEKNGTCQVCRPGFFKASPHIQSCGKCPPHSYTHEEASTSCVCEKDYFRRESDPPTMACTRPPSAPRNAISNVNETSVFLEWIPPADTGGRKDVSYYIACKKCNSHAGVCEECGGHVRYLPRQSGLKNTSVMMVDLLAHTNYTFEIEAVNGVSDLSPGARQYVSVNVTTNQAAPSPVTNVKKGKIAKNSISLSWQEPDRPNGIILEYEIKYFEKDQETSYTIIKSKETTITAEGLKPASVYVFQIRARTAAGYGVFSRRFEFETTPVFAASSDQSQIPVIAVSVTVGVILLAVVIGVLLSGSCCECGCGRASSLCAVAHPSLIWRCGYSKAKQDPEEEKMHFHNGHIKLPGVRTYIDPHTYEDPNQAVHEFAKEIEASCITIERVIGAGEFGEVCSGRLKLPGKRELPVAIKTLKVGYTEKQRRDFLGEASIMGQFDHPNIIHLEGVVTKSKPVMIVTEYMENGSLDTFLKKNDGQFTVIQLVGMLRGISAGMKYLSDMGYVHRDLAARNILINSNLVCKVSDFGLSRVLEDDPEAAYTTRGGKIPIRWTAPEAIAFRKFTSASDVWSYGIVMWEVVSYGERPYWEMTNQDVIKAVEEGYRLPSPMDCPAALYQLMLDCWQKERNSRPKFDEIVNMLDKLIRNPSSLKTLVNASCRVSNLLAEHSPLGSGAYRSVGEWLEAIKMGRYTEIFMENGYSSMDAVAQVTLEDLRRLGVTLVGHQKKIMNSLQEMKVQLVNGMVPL
Chain of Phosphatidylinositol 4-phosphate 3-kinase C2 domain-containing subunit beta (Homo sapiens) (O00750 whole entry, the tested form may be a part): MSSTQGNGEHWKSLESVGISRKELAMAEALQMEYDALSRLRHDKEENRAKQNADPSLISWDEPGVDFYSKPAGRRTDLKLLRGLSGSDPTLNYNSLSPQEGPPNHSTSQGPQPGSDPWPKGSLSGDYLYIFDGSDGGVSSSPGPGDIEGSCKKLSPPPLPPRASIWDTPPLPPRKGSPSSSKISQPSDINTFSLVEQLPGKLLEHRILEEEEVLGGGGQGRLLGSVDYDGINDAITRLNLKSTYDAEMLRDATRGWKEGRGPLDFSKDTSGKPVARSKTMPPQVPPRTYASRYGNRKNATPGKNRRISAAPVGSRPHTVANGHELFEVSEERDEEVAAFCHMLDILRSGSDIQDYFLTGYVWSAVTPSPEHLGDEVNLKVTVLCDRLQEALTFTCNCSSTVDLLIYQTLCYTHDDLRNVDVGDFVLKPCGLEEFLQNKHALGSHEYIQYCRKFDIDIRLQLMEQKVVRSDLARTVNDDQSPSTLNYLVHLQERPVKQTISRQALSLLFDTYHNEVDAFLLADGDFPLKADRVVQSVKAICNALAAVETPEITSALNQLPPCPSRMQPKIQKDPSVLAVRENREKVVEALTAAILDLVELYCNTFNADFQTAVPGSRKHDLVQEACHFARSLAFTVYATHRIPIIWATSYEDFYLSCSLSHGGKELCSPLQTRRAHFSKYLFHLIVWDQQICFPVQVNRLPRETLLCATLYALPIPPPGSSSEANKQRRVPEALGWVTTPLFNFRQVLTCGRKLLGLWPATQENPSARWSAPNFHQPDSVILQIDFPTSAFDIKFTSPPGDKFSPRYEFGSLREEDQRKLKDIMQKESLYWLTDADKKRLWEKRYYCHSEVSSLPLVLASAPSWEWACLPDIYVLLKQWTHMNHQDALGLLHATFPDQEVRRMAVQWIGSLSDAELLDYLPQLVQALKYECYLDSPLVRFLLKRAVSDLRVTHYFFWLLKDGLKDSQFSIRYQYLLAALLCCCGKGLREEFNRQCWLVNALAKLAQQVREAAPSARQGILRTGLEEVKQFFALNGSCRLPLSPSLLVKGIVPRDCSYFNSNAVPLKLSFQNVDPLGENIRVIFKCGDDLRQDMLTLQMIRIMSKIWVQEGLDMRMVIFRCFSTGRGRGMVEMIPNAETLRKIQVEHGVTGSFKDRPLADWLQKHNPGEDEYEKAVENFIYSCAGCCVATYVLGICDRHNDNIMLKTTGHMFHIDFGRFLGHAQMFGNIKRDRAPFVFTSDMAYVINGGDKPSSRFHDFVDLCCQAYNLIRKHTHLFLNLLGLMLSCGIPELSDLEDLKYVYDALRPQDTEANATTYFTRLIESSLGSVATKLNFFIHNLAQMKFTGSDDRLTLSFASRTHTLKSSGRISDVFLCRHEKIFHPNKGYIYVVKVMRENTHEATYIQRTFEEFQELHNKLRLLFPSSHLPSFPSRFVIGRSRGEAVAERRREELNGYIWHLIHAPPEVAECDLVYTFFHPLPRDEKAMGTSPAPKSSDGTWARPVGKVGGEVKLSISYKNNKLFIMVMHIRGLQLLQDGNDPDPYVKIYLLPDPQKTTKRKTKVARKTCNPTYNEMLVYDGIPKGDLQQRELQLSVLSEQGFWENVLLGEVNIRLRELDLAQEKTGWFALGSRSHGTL
Chain of Epidermal growth factor receptor (Homo sapiens), P00533 [L858R] (P00533 whole entry L858R, the tested form may be a part): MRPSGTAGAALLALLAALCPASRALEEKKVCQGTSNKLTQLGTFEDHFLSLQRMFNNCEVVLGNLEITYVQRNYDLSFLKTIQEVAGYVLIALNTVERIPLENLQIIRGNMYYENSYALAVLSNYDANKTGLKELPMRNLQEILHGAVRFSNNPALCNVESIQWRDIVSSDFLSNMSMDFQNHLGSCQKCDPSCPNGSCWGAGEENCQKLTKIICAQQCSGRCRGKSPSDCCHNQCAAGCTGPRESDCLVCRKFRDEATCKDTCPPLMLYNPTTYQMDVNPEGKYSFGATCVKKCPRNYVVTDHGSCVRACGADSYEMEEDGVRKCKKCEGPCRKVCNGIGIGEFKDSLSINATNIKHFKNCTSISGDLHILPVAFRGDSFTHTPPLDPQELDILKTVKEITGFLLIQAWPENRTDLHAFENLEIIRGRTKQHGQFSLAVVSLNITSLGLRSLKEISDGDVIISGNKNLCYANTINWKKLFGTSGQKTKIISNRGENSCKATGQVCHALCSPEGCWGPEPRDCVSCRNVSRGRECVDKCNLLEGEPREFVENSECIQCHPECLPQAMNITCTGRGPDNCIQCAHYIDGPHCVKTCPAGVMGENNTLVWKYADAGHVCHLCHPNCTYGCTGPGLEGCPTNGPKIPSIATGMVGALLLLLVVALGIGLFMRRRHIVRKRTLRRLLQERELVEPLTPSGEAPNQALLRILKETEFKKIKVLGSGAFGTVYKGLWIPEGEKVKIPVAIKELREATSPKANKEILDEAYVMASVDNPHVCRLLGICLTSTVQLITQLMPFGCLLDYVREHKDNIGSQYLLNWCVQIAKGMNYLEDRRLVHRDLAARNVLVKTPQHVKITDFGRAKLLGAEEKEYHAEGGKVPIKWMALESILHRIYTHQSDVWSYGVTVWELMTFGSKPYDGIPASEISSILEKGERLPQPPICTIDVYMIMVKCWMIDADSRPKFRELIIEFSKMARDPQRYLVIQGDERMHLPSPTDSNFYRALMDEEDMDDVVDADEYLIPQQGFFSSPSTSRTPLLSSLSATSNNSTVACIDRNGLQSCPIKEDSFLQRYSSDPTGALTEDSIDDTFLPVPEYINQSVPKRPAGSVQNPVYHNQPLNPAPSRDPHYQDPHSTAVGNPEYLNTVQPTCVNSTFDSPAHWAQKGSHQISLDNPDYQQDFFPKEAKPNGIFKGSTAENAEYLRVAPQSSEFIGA
Chain of Maternal embryonic leucine zipper kinase (Homo sapiens) (Q14680 whole entry, looked up, the tested form may be a part): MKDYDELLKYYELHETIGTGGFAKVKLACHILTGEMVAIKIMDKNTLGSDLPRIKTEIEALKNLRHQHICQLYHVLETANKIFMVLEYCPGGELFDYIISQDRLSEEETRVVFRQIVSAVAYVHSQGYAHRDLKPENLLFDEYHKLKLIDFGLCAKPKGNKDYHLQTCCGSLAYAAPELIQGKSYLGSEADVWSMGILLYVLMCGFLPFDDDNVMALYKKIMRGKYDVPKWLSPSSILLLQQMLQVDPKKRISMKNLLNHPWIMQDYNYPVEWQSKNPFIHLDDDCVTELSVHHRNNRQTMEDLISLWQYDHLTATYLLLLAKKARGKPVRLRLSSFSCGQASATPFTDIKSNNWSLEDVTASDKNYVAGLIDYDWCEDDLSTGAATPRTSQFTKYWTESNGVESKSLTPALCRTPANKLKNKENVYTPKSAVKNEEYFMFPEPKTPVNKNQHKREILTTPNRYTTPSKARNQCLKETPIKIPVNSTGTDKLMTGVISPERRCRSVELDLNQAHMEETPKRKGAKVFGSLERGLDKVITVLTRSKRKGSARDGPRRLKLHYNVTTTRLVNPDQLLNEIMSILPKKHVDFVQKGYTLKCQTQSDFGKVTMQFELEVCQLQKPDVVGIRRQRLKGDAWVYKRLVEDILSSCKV
Chain of Serine/threonine-protein kinase 3 (Homo sapiens) (Q13188 whole entry, the tested form may be a part): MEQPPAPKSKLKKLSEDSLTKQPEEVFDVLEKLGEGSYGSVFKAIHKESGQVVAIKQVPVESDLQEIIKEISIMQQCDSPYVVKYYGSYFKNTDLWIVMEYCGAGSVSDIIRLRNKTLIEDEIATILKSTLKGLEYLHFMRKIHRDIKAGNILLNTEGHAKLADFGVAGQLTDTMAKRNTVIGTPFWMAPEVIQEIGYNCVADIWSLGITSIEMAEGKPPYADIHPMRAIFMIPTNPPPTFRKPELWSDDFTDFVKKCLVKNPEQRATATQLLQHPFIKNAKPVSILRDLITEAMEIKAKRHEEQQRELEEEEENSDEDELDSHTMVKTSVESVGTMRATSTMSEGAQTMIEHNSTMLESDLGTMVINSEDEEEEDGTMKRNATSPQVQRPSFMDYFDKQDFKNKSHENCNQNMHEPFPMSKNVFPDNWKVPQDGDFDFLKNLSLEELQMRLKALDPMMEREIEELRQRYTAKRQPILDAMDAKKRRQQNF

`O=C(Nc1cccc([C@H]2CCCN(c3ncnc4[nH]ccc34)C2)c1)Nc1ccccc1N1CCCC1`: the inhibition in test [1] is 47%; in [2], 68%; in test [3], 0%; in test [4] it was 34%; in [5] it was 94%; in test [6], 9%. For the same compound, the inhibition in [7] worked out at 77%; in test [8], 36%; in [9], 100%; in [10], 54%; in test [11], 51%; in test [12], 66%. For the same compound, the inhibition in [13] worked out at 67%; in [14] it was 74%; in test [15], 76%.

As for `O=C(Nc1cccc([C@@H]2CN(c3ncnc4[nH]ccc34)CCN2CCO)c1)Nc1c(F)cccc1N1CCCC1`, the inhibition was determined as 100% in test [16]; 81% in test [17]; 97% in test [18]; 100% in [19]; 64% in test [20]; 100% in test [21]. Besides, the inhibition in test [22] stood at 92%; in [23] it was 99%; in test [24], 100%; in test [25], 62%; in test [26], 98%.
